# Data: the NIST ThermoML archive (doi:10.1016/j.jct.2016.10.047)
# Numbers after ± are expanded uncertainties.
# Assays:
# [1] = refractive index (other wavelength) (dimensionless); conditions: 94 kPa, Liquid, Wavelength=632.8 nm, minimum deviation method
# [2] = refractive index (other wavelength) (dimensionless); xn = mol fraction of the nth substance listed; conditions: 94 kPa, Liquid, Wavelength=632.8 nm, minimum deviation method, x2 = 0
structure (smiles),measurement,setting,value
CCCCCCCC[n+]1ccn(C)c1.F[P-](F)(F)(F)(F)F [1-octyl-3-methylimidazolium hexafluorophosphate],refractive index,[1]; 298.19 K,1.4215 ± 0.0003
same,refractive index,[1]; 300.2 K,1.421 ± 0.0003
same,refractive index,[1]; 302.19 K,1.4204 ± 0.0003
same,refractive index,[1]; 304.2 K,1.4199 ± 0.0003
same,refractive index,[1]; 306.22 K,1.4193 ± 0.0003
same,refractive index,[1]; 308.24 K,1.4188 ± 0.0003
same,refractive index,[1]; 310.25 K,1.4183 ± 0.0003
same,refractive index,[1]; 312.24 K,1.4178 ± 0.0003
CC(C)O [propan-2-ol],refractive index,[1]; 298.21 K,1.3736 ± 0.0002
same,refractive index,[1]; 300.17 K,1.3728 ± 0.0002
same,refractive index,[1]; 302.2 K,1.3719 ± 0.0002
same,refractive index,[1]; 304.24 K,1.371 ± 0.0002
same,refractive index,[1]; 306.22 K,1.3701 ± 0.0002
same,refractive index,[1]; 308.22 K,1.3693 ± 0.0002
same,refractive index,[1]; 310.24 K,1.3684 ± 0.0002
same,refractive index,[1]; 312.2 K,1.3675 ± 0.0002
CC(C)O [propan-2-ol] + CCCCCCCC[n+]1ccn(C)c1.F[P-](F)(F)(F)(F)F,refractive index,[2]; 298.21 K,1.3736 ± 0.0002
same,refractive index,[2]; 300.17 K,1.3728 ± 0.0002
same,refractive index,[2]; 302.2 K,1.3719 ± 0.0002
same,refractive index,[2]; 304.24 K,1.371 ± 0.0002
same,refractive index,[2]; 306.22 K,1.3701 ± 0.0002
same,refractive index,[2]; 308.22 K,1.3693 ± 0.0002
same,refractive index,[2]; 310.24 K,1.3684 ± 0.0002
same,refractive index,[2]; 312.2 K,1.3675 ± 0.0002
